Test results taken from the METLIN SMRT retention time set (Domingo-Almenara et al. 2019).

Assay: gradient 5% acetonitrile 3 min, to 50% in 2 min, to 85% in 15 min, held 3 min, 100 µL/min
Conditions: column: Zorbax Extend-C18 2.1 x 50 mm; eluents: water / acetonitrile, 0.1% formic acid
How it was run: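 Using water and acetonitrile that each contained 0.1% formic acid, mixtures of ~100 pure standards were separated at 100 μL/min on a Zorbax Extend-C18 column (2.1 × 50 mm, 1.8 μm). The HPLC fed a quadrupole time-of-flight mass spectrometer working in positive and negative ionization mode, with dead and dwell volumes of 40 μL and 900 μL. Data were acquired over 3 months. Retention time was read from computationally picked adduct peaks after manual inspection of each.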

Row | SMILES | RP-LC retention time
1 | O=c1c2ccccc2ncn1Cc1noc(-c2cccc(Br)c2)n1 | 914 s
2 | COc1cccc(-c2cc3n(n2)C(NCCc2cccs2)CNC3=O)c1 (stereo not given) | 838 s
3 | O=C(NCCC1=CCCCC1)c1ccc(CN2CCN(C3CCCC3)C(=O)C2=O)cc1 | 836 s
4 | CCc1ccc(S(=O)(=O)c2cnc(N3CCN(c4ccc(OC)cc4)CC3)nc2N)cc1 | 996 s
5 | CC1CCCC(NC(=O)c2cc3sc(Cl)cc3n2C)C1C (stereo not given) | 1230 s
6 | COc1ccc(-c2nc3ccc(Cl)cn3c2Nc2ccc3c(c2)OCCO3)cc1 | 750 s
7 | O=C(CN1C(=O)c2ccccc2C1=O)Nc1ccc2c(c1)N(C(=O)c1ccco1)CCC2 | 738 s
8 | CCc1nn2c(CNS(=O)(=O)c3ccccc3CC)c(-c3ccccc3)nc2s1 | 1020 s
9 | Cn1cc(C(=O)NCc2ccc(F)cc2)c2cccnc21 | 721 s
10 | Cc1c(C(=O)N2CCN(Cc3nc(C(C)(C)C)cs3)CC2)cccc1[N+](=O)[O-] | 740 s
11 | O=C([C@@H]1C[C@H](F)CN1C(=O)NCCc1ccccc1)N1CCOCC1 | 608 s
12 | Cc1cc2c(c(=O)n(-c3ccc(F)cc3)c(=O)n2CC(=O)Nc2cccc(C#N)c2)n1C | 824 s
13 | COCCCN(CC(=O)N1CCc2sccc2C1COc1ccccc1)C(=O)C(C)C (stereo not given) | 892 s
14 | Cc1ccc(C2Cn3nnc(-c4nc(-c5ccc(F)c(F)c5)no4)c3CO2)c(C)c1 (stereo not given) | 1230 s
15 | CC(C(=O)OC1CC2CCC(C1)N2C)c1ccc(Br)cc1 (stereo not given) | 785 s
16 | CCc1csc(-c2ccc(N3CCN(C(=O)C4COc5ccccc5O4)CC3)nc2)n1 (stereo not given) | 1030 s
17 | COc1ccc(OC)c(NC(=O)C(=O)NCC2CCCO2)c1 (stereo not given) | 807 s
18 | O=C(CN1CC=C(c2cnn(-c3ccccc3)c2)CC1)N1CCC(N2CCCCC2)CC1 | 573 s
19 | c1ccc(Cn2cc(-c3noc(-c4ccccc4)n3)nn2)cc1 | 814 s
20 | COc1ccc(N2C(=O)CSC2c2ccc(Cl)cc2)cc1 (stereo not given) | 877 s
21 | CCCNC(=O)CC1=C2CCCCC2NC1=O (stereo not given) | 618 s
22 | CC(NC(=O)c1csc(C(=O)NC2CCCC2)n1)c1ccc(F)cc1 (stereo not given) | 931 s
23 | O=C(Nc1ccc(OCc2nnc(-c3ccc(Cl)cc3)o2)cc1)c1cccnc1 | 816 s

Row | SMILES | RP-LC retention time
24 | COc1cc(OC)c(NC(=O)N2CCc3nc[nH]c3C2)cc1Cl | 583 s
25 | Cn1cc(C(CNC(=O)Nc2ccc(Br)cc2F)c2cccnc2)c2ccccc21 (stereo not given) | 781 s
26 | COc1ccc(OC)c(NS(=O)(=O)c2c(C)sc(C)c2-c2cc(C(F)(F)F)on2)c1 | 1150 s
27 | Cc1nc(-c2cc3ccccc3nc2N2CCN(Cc3ccccc3)CC2)no1 | 715 s
28 | O=C(CSc1nnc(-c2ccc3c(c2)OCCCO3)n1C1CC1)N1CCCC1 | 710 s
29 | CCc1nc(OCC(=O)N(CC)c2ccccc2)c2ccccc2n1 | 798 s
30 | Cn1c(=O)n(C)c2cc(CNc3ccc(C(=O)O)c(Cl)c3)ccc21 | 697 s
31 | COc1ccccc1-c1noc(C2CCCN2C(=O)Nc2ccc3c(c2)OCO3)n1 (stereo not given) | 812 s
32 | Fc1ccc(-c2nnc(Cc3nc(-c4ccc(Br)cc4)no3)o2)cc1 | 1110 s
33 | CC(C)CCN1CCC(N2CCN(S(=O)(=O)c3ccccc3F)CC2)C1=O (stereo not given) | 662 s
34 | O=C(Cn1cccc1-c1nc(-c2ccc(Cl)cc2)cs1)NCc1ccccn1 | 795 s
35 | CC(C)C(=O)NCC12CCC=C1N(C)C(=O)CC2 (stereo not given) | 636 s
36 | CN(C)CCNC(=O)C1CCN(c2nc3ccc(-c4ccccc4F)nc3s2)CC1 | 658 s
37 | CCOC(=O)Cc1csc(NC(=O)CSc2nc(C)cc(C)n2)n1 | 728 s
38 | Cc1nc2ccn(Cc3cccnc3)c(=O)c2cc1C(=O)NC1CCCCC1 | 620 s
39 | CS(=O)(=O)N1CCC(C(=O)Nc2ccc(F)cc2)Oc2ccccc21 (stereo not given) | 817 s
40 | COc1cccc(NC(=O)NCc2cc(C)oc2C)c1OC | 815 s
41 | Cc1nnc(N2CCCC(C(=O)NCc3ccc4c(c3)OCO4)C2)c2nn(-c3ccccc3)c(C)c12 (stereo not given) | 698 s
42 | CCCCOc1ccc(C(=O)Oc2coc(CSc3nncn3C)cc2=O)cc1 | 739 s
43 | CC1CCN(C(=O)C2CCN(S(=O)(=O)c3ccc4c(c3)CCCC(=O)N4)CC2)CC1 | 744 s
44 | CCN(CC)S(=O)(=O)c1ccc2c(c1)cc(C(=O)NCCN(C)C)n2C | 639 s
45 | N#Cc1ccc(-c2nc(-c3nn(CCN4CCOCC4)c4ccccc34)no2)cc1 | 692 s
46 | COc1ccc(OC)c(-c2cn3ccn(-c4ccc(C)c(Cl)c4)c(=O)c3n2)c1 | 982 s

Results, then the compound that gave them:

Row | RP-LC retention time | SMILES
47 | 1010 s | CN1c2cc(C(=O)Nc3ccc(OC(F)(F)F)cc3)ccc2C(=O)N2CCCCC21 (stereo not given)
48 | 670 s | CS(=O)(=O)N1CCCN(C(=O)c2ccc(F)cc2)CC1
49 | 536 s | c1cc(CSc2cc(N3CCCC3)ncn2)ccn1
50 | 670 s | Cc1ccc(CNC(=O)CNC(=O)N2CCSc3nc(C)cc(C)c32)cc1
51 | 717 s | O=C1CCc2cc(NC(=O)c3cccc(C(F)(F)F)c3)ccc2N1
52 | 782 s | O=[N+]([O-])c1ccc2c(c1)S(=O)c1ccccc1-2 (stereo not given)
53 | 994 s | Cn1cccc1CN(C(=O)c1ccc(Cl)c(Cl)c1)C1CC1
54 | 1020 s | O=C(Nc1c(Cl)cncc1Cl)c1ccc(OC(F)F)c(OCC2CC2)c1
55 | 1340 s | c1ccc(-c2nc3cnc(N4CCN(c5ccccc5)CC4)nc3o2)cc1
56 | 577 s | Cc1ccc2cc(CCC(=O)NCCCN3CCOCC3)c(=O)[nH]c2c1
57 | 824 s | O=C(NCC1CCCCC1)c1ccc(CN2C(=O)C3CCCN3C(=O)c3ccccc32)cc1 (stereo not given)
58 | 757 s | O=C(COc1ccc(Cl)cc1)Nc1ccc(-c2nnc3n2CCCC3)cc1
59 | 992 s | COc1ccc(CCNC(=O)C2CCN(S(=O)(=O)N(CC(C)C)CC(C)C)CC2)cc1OC
60 | 731 s | COc1ccc(S(=O)(=O)N(C)C2CCc3nn(CC4CC4)c(=O)n3CC2)cc1OC (stereo not given)
61 | 646 s | CCCC(=O)Nc1ccc2c(c1)CC(C(=O)NCCOC)CO2 (stereo not given)
62 | 717 s | CCOC(=O)[C@H]1[C@H]2C=C[C@]3(CN(c4ccccc4C)C(=O)[C@@H]13)O2
63 | 826 s | COCCNC(=O)C1CCN(c2nccnc2Sc2cccc(C)c2)CC1
64 | 868 s | O=C(NCCOc1ccccc1)c1cccc(Br)c1
65 | 795 s | COC(=O)c1c(NCCc2ccc(Cl)cc2)c2ccc(F)cc2[nH]c1=O
66 | 981 s | Cc1ccc(Cn2c(=O)c(N3CCN(C(=O)NC(C)C)CC3)nc3ccccc32)cc1
67 | 623 s | CSc1ncc2ncn(C3OC(CO)C(O)C3O)c2n1 (stereo not given)
68 | 886 s | COc1ccc(C(=O)N2CCC3(CC2)N=C(c2ccc(Br)cc2)NO3)c(OC)c1

Row | RP-LC retention time | SMILES
69 | 749 s | CCOC(=O)Cc1ccc(NC(=O)N2CCc3cn(C)c4cccc(c34)C2)cc1
70 | 776 s | COc1ccc(NC(=O)c2cnc(N3CCN(c4ccc(F)cc4)CC3)nc2N)cc1
71 | 921 s | Cc1cc(C)c(NC(=O)Cn2c(=O)n(-c3ccc(F)cc3)c(=O)c3c2cc(C)n3C)c(C)c1
72 | 990 s | CCN1c2ccc(C(=O)Nc3ccc4c(c3)OCCO4)cc2-c2ccccc2S1(=O)=O
73 | 1040 s | CCc1nc(-c2csc(S(=O)(=O)N3CCCC(C(=O)Nc4cccc(Cl)c4)C3)c2)no1 (stereo not given)
74 | 1420 s | CCn1c(=O)c(N2CCCC(C(=O)N3CCN(c4cc(Cl)ccc4C)CC3)C2)nc2ccccc21 (stereo not given)
75 | 629 s | O=C(NCCCn1nc(-c2ccncc2)ccc1=O)C1c2ccccc2Oc2ccccc21
76 | 668 s | Nc1cc(C2CCN(C(=O)NCCc3ccccc3)CC2)no1
77 | 962 s | CCOC(=O)CNC(=O)c1cn(CC)nc1S(=O)(=O)N1CCN(c2ccccc2OCC)CC1
78 | 727 s | O=C(Nc1cc(F)ccc1F)Nc1cccn2cnnc12
79 | 742 s | Cc1cn(C)c(CC(=O)N2CCc3ccccc32)c1C(=O)O
80 | 762 s | Cc1nc(CCNC(=O)C2CCN(S(=O)(=O)c3ccc(F)c(Cl)c3)CC2)cs1
81 | 630 s | Cc1noc(C)c1CC(=O)N(C)C1CCc2nn(CC3CC3)c(=O)n2CC1 (stereo not given)
82 | 848 s | CCCN1C(=O)c2c(C(=O)NCc3ccc(C)cc3)ncn2CC1(C)C(=O)NC1CCCC1 (stereo not given)
83 | 584 s | CCN(CC)CCn1c(NCc2ccc(C)cc2)nc2ccccc21
84 | 1200 s | CC(C)NC(=O)C1Cc2cc(C(F)(F)F)ccc2N2CCN(c3ccccc3Cl)CC12 (stereo not given)
85 | 719 s | O=C(NC1CC1)c1n[nH]c2c1CCCCCC2
86 | 582 s | CCNC(=O)N1CCCN(S(=O)(=O)CC)CC1
87 | 993 s | CCn1nnc2cc(-c3noc(-c4cc(OC)c(OC)c(OC)c4)n3)ccc21
88 | 692 s | CO[C@H]1C(=O)N(C(C)C)[C@H]1C1CCN(C(=O)c2ccco2)CC1
89 | 899 s | CCOc1ccc2nc(Nc3ncc4c(n3)CC(c3cccc(Cl)c3)CC4=O)nc(C)c2c1 (stereo not given)
90 | 764 s | CCOC(=O)Cn1c(C2CC(=O)N(Cc3ccc(F)cc3)C2)nc2ccccc21 (stereo not given)
